From PubChem BioAssay AID328 (DTP/NCI, 2004)
Values joined by “and” are separate entries in the source; they are usually repeats but may differ in a detail not shown here. Equal entries are not always repeated. Inconclusive results and toxic doses are left out. The calls were made as follows: active = survival T/C of 150% or more; inactive = T/C below 125% in these data.

Test system: BDF1 mice, P388 leukemia ip, median survival T/C
Assay: NCI In Vivo Anticancer Drug Screen. Data for tumor model P388 Leukemia (intraperitoneal) in B6D2F1 (BDF1) mice
Settings: endpoint: median survival time, higher = longer survival
Outline: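 In tumour-bearing mice, survival after compound treatment is set against the vehicle group and given as a quotient.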

[1] = dose: 25.0 mg/kg/injection, schedule: Q01DX009 (ip), vehicle: saline
[2] = dose: 50.0 mg/kg/injection, schedule: Q01DX009 (ip), vehicle: saline
[3] = dose: 100.0 mg/kg/injection, schedule: Q01DX009 (ip), vehicle: saline
[4] = dose: 200.0 mg/kg/injection, schedule: Q01DX009 (ip), vehicle: saline

Measured: T/C

O=c1[nH]c(=O)n([C@H]2CCCO2)cc1F
inactive: dose: 23.0 mg/kg/injection, schedule: Q01DX009 (ip), vehicle: water 89 % of control | dose: 39.0 mg/kg/injection, schedule: Q01DX009 (ip), vehicle: water 87 % of control | dose: 44.0 mg/kg/injection, schedule: Q01DX009 (ip), vehicle: Klucel (hydroxypropylcellulose) (HPC) 104 % of control and 108 % of control and 109 % of control | dose: 59.0 mg/kg/injection, schedule: Q01DX009 (ip), vehicle: Klucel (hydroxypropylcellulose) (HPC) 100 % of control and 107 % of control and 111 % of control | dose: 65.0 mg/kg/injection, schedule: Q01DX009 (ip), vehicle: water 99 % of control | dose: 65.0 mg/kg/injection, schedule: Q04DX003 (ip), vehicle: water 89 % of control | dose: 75.0 mg/kg/injection, schedule: Q04DX003 (ip), vehicle: other 118 % of control | dose: 90.0 mg/kg/injection, schedule: Q01DX009 (ip), vehicle: Klucel (hydroxypropylcellulose) (HPC) 87 % of control and 104 % of control and 112 % of control | dose: 108.0 mg/kg/injection, schedule: Q01DX009 (ip), vehicle: water 101 % of control | dose: 108.0 mg/kg/injection, schedule: Q04DX003 (ip), vehicle: water 98 % of control | dose: 134.0 mg/kg/injection, schedule: Q01DX009 (ip), vehicle: Klucel (hydroxypropylcellulose) (HPC) 108 % of control and 120 % of control (2×) | dose: 142.0 mg/kg/injection, schedule: Q04DX003 (ip), vehicle: Klucel (hydroxypropylcellulose) (HPC) 103 % of control and 109 % of control and 110 % of control | dose: 150.0 mg/kg/injection, schedule: Q04DX003 (ip), vehicle: other 118 % of control | dose: 180.0 mg/kg/injection, schedule: Q01DX009 (ip), vehicle: water 89 % of control | dose: 180.0 mg/kg/injection, schedule: Q04DX003 (ip), vehicle: water 96 % of control | dose: 189.0 mg/kg/injection, schedule: Q04DX003 (ip), vehicle: Klucel (hydroxypropylcellulose) (HPC) 105 % of control and 113 % of control and 117 % of control | dose: 201.0 mg/kg/injection, schedule: Q01DX009 (ip), vehicle: Klucel (hydroxypropylcellulose) (HPC) 102 % of control and 111 % of control | dose: 288.0 mg/kg/injection, schedule: Q04DX003 (ip), vehicle: Klucel (hydroxypropylcellulose) (HPC) 109 % of control and 112 % of control and 118 % of control | dose: 300.0 mg/kg/injection, schedule: Q04DX003 (ip), vehicle: other 118 % of control | dose: 300.0 mg/kg/injection, schedule: Q04DX003 (ip), vehicle: water 100 % of control | dose: 316.0 mg/kg/injection, schedule: Q01DX001 (ip), vehicle: Klucel (hydroxypropylcellulose) (HPC) 104 % of control (2×) and 109 % of control | dose: 421.0 mg/kg/injection, schedule: Q01DX001 (ip), vehicle: Klucel (hydroxypropylcellulose) (HPC) 109 % of control and 111 % of control and 123 % of control | dose: 430.0 mg/kg/injection, schedule: Q04DX003 (ip), vehicle: Klucel (hydroxypropylcellulose) (HPC) 109 % of control and 110 % of control and 113 % of control | dose: 500.0 mg/kg/injection, schedule: Q04DX003 (ip), vehicle: water 92 % of control | dose: 600.0 mg/kg/injection, schedule: Q04DX003 (ip), vehicle: other 95 % of control | dose: 641.0 mg/kg/injection, schedule: Q01DX001 (ip), vehicle: Klucel (hydroxypropylcellulose) (HPC) 104 % of control and 118 % of control and 124 % of control | dose: 645.0 mg/kg/injection, schedule: Q04DX003 (ip), vehicle: Klucel (hydroxypropylcellulose) (HPC) 111 % of control and 114 % of control | dose: 957.0 mg/kg/injection, schedule: Q01DX001 (ip), vehicle: Klucel (hydroxypropylcellulose) (HPC) 104 % of control and 123 % of control | dose: 1200.0 mg/kg/injection, schedule: Q04DX003 (ip), vehicle: other 90 % of control | dose: 1436.0 mg/kg/injection, schedule: Q01DX001 (ip), vehicle: Klucel (hydroxypropylcellulose) (HPC) 105 % of control and 117 % of control

COC(=O)C1=COC2OC3C(C(C)O)C(=O)OC34C=CC1C24 (stereo not drawn)
inactive: dose: 0.04 mg/kg/injection, schedule: Q01DX009 (ip), vehicle: saline + alcohol 90 % of control | dose: 0.2 mg/kg/injection, schedule: Q01DX009 (ip), vehicle: saline + alcohol 95 % of control | dose: 1.0 mg/kg/injection, schedule: Q01DX009 (ip), vehicle: saline + alcohol 118 % of control | dose: 5.0 mg/kg/injection, schedule: Q01DX009 (ip), vehicle: saline + alcohol 118 % of control

NC(=O)CCCNC(=O)CCC[c-]1[c-][c-][c-][c-]1.[Fe].[c-]1[c-][c-][cH-][c-]1
inactive: dose: 6.25 mg/kg/injection, schedule: Q01DX009 (ip), vehicle: other 100 % of control | dose: 12.5 mg/kg/injection, schedule: Q01DX009 (ip), vehicle: other 98 % of control | dose: 25.0 mg/kg/injection, schedule: Q01DX009 (ip), vehicle: other 100 % of control | dose: 50.0 mg/kg/injection, schedule: Q01DX009 (ip), vehicle: other 114 % of control | dose: 100.0 mg/kg/injection, schedule: Q01DX009 (ip), vehicle: other 121 % of control

CSC1(CC(=O)N2CCCCC2)C(=O)Nc2ccccc21 (stereo not drawn)
inactive: dose: 50.0 mg/kg/injection, schedule: Q04DX002 (ip), vehicle: saline with Tween-80 95 % of control | dose: 100.0 mg/kg/injection, schedule: Q04DX002 (ip), vehicle: saline with Tween-80 101 % of control | dose: 200.0 mg/kg/injection, schedule: Q04DX002 (ip), vehicle: saline with Tween-80 95 % of control

COc1ccc2[nH]c(=O)c(C)c(C)c2c1
inactive: dose: 3.12 mg/kg/injection, schedule: Q01DX009 (ip), vehicle: saline 98 % of control | dose: 6.25 mg/kg/injection, schedule: Q01DX009 (ip), vehicle: saline 94 % of control | dose: 12.5 mg/kg/injection, schedule: Q01DX009 (ip), vehicle: saline 94 % of control | [1] 92 % of control | dose: 25.0 mg/kg/injection, schedule: Q04DX003 (ip), vehicle: saline 107 % of control | [2] 96 % of control and 117 % of control | dose: 50.0 mg/kg/injection, schedule: Q04DX003 (ip), vehicle: saline 118 % of control | [3] 94 % of control | dose: 100.0 mg/kg/injection, schedule: Q04DX003 (ip), vehicle: saline 111 % of control | dose: 200.0 mg/kg/injection, schedule: Q04DX003 (ip), vehicle: saline 100 % of control | dose: 400.0 mg/kg/injection, schedule: Q04DX003 (ip), vehicle: saline 115 % of control

CCOP(=O)(OCC)SCSC(C)C
inactive: dose: 0.19 mg/kg/injection, schedule: Q01DX009 (ip), vehicle: Klucel (hydroxypropylcellulose) (HPC) 88 % of control | dose: 3.12 mg/kg/injection, schedule: Q01DX009 (ip), vehicle: Klucel (hydroxypropylcellulose) (HPC) 96 % of control

OCc1cncc(F)c1
inactive: [2] 103 % of control | [3] 103 % of control | [4] 103 % of control

CC(C)c1cccc(OS(=O)(=O)c2ccccc2[N+](=O)[O-])c1
inactive: dose: 100.0 mg/kg/injection, schedule: Q04DX003 (ip), vehicle: saline sonified 100 % of control | dose: 200.0 mg/kg/injection, schedule: Q04DX003 (ip), vehicle: saline sonified 100 % of control | dose: 400.0 mg/kg/injection, schedule: Q04DX003 (ip), vehicle: saline sonified 100 % of control

Nc1[nH]c(=O)nc2nc[nH]c12
inactive: [1] 112 % of control | [2] 98 % of control | [3] 119 % of control

[Cl][Hg][c]1ccc2ccccc2c1
inactive: dose: 12.5 mg/kg/injection, schedule: Q01DX009 (ip), vehicle: gum acacia 112 % of control

O=S(=O)(O)O
inactive: dose: 6.25 mg/kg/injection, schedule: Q01DX009 (ip), vehicle: water 90 % of control | dose: 12.5 mg/kg/injection, schedule: Q01DX009 (ip), vehicle: saline with Tween-80 124 % of control | dose: 12.5 mg/kg/injection, schedule: Q01DX009 (ip), vehicle: water 100 % of control | dose: 25.0 mg/kg/injection, schedule: Q04DX003 (ip), vehicle: water 90 % of control | dose: 100.0 mg/kg/injection, schedule: Q04DX003 (ip), vehicle: water 90 % of control

Cc1cc(C)n(-c2nn3nnnc3c3ccccc23)n1
inactive: [2] 95 % of control | [3] 95 % of control | [4] 93 % of control
